Laboratory results taken from patent US6881741B2 (ViroChem Pharma Inc., priority 2001, dated 2005).

biological target: recombinant HCV NS5B (HCV RNA-dependent RNA polymerase) (Hepatitis C virus genotype 1b, UniProt P26663); assay: biochemical; conditions: related polymerase activity (Example 27 list); read-out: IC50
Sequence (P26663 2420-3010 limits assumed): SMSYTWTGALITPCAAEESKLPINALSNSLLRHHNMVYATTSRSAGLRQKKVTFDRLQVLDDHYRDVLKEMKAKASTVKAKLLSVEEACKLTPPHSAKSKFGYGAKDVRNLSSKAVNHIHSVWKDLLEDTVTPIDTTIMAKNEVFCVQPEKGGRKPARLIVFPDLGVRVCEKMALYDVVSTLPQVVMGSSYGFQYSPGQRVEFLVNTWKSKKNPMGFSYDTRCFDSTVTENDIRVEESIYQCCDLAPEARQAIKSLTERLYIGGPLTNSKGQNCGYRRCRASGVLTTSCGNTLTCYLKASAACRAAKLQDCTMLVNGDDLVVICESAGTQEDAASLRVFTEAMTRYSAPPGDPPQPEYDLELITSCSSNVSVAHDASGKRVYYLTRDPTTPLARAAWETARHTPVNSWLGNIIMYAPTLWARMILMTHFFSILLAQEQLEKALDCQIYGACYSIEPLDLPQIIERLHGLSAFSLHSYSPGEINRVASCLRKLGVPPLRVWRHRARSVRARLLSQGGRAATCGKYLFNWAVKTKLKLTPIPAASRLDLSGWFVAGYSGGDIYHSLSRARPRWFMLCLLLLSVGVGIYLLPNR

| SMILES | IC50 [µM] |
| --- | --- |
| O=C(Nc1cc(-c2ccccc2)sc1C(=O)O)c1ccc(F)cc1F [Compound 77, 3-(2,4-DIFLUORO-BENZOYLAMINO)-5-PHENYL-THIOPHENE-2-CARBOXYLIC ACID] | > 20 |
| CN(C(=O)c1ccc(F)cc1F)c1cc(-c2ccccc2)sc1C(=O)O [Compound 78, 3-[(2,4-DIFLUORO-BENZOYL)-METHYL-AMINO]-5-PHENYL-THIOPHENE-2-CARBOXYLIC ACID] | 5 to 20 |
| Cc1ccccc1S(=O)(=O)Nc1cc(C#C[Si](C)(C)C)sc1C(=O)O [Compound 79] | < 5 |
| C#Cc1cc(NS(=O)(=O)c2ccccc2C)c(C(=O)O)s1 [Compound 80, 5-ETHYNYL-3-(TOLUENE-2-SULFONYLAMINO)-THIOPHENE-2-CARBOXYLIC ACID] | 5 to 20 |
| Cc1ccccc1S(=O)(=O)Nc1cc(-c2cccc(OC(F)(F)F)c2)sc1C(=O)O [Compound 81, 3-(TOLUENE-2-SULFONYLAMINO)-5-(3-TRIFLUOROMETHOXY-PHENYL)-THIOPHENE-2-CARBOXYLIC ACID] | 5 to 20 |
| Cc1ccccc1S(=O)(=O)Nc1cc(C(=O)c2ccccc2)sc1C(=O)O [Compound 82, 5-BENZOYL-3-(TOLUENE-2-SULFONYLAMINO)-THIOPHENE-2-CARBOXYLIC ACID] | 5 to 20 |
| Cc1ccccc1S(=O)(=O)Nc1cc(-c2ccc(C#N)cc2)sc1C(=O)O [Compound 83, 5-(4-CYANO-PHENYL)-3-(TOLUENE-2-SULFONYLAMINO)-THIOPHENE-2-CARBOXYLIC ACID] | < 5 |
| Cc1ccccc1S(=O)(=O)Nc1cc(-c2ccc(Cl)c(Cl)c2)sc1C(=O)O [Compound 85, 5-(3,4-DICHLORO-PHENYL)-3-(TOLUENE-2-SULFONYLAMINO)-THIOPHENE-2-CARBOXYLIC ACID] | 5 to 20 |
| Cc1ccccc1S(=O)(=O)Nc1cc(-c2ccncc2)sc1C(=O)O [Compound 86, 5-PYRIDIN-4-YL-3-(TOLUENE-2-SULFONYLAMINO)-THIOPHENE-2-CARBOXYLIC ACID] | < 5 |
| Cc1ccccc1S(=O)(=O)Nc1cc(-c2cccnc2)sc1C(=O)O [Compound 87, 5-PYRIDIN-3-YL-3-(TOLUENE-2-SULFONYLAMINO)-THIOPHENE-2-CARBOXYLIC ACID] | < 5 |
| Cc1ccccc1S(=O)(=O)Nc1cc(-c2ccc(C(F)(F)F)cc2)sc1C(=O)O [Compound 88, 3-(TOLUENE-2-SULFONYLAMINO)-5-(4-TRIFLUOROMETHYL-PHENYL)-THIOPHENE-2-CARBOXYLIC ACID] | < 5 |
| Cc1ccccc1S(=O)(=O)Nc1cc(-c2ccc(S(C)(=O)=O)cc2)sc1C(=O)O [Compound 89, 5-(4-METHANESULFONYL-PHENYL)-3-(TOLUENE-2-SULFONYLAMINO)-THIOPHENE-2-CARBOXYLIC ACID] | < 5 |
| CC(=O)Nc1cccc(-c2cc(NS(=O)(=O)c3ccccc3C)c(C(=O)O)s2)c1 [Compound 90, 5-(3-ACETYLAMINO-PHENYL)-3-(TOLUENE-2-SULFONYLAMINO)-THIOPHENE-2-CARBOXYLIC ACID] | 5 to 20 |
| Cc1ccccc1S(=O)(=O)Nc1cc(-c2ccc(F)c(Cl)c2)sc1C(=O)O [Compound 91, 5-(3-CHLORO-4-FLUORO-PHENYL)-3-(TOLUENE-2-SULFONYLAMINO)-THIOPHENE-2-CARBOXYLIC ACID] | 5 to 20 |
| Cc1ccc(C(=O)Nc2cc(-c3ccccc3)sc2C(=O)O)cc1 [Compound 92, 3-(4-METHYL-BENZOYLAMINO)-5-PHENYL-THIOPHENE-2-CARBOXYLIC ACID] | 5 to 20 |
| Cc1ccc(C(=O)N(C)c2cc(-c3ccccc3)sc2C(=O)O)cc1 [Compound 93, 3-[METHYL-(4-METHYL-BENZOYL)-AMINO]-5-PHENYL-THIOPHENE-2-CARBOXYLIC ACID] | < 5 |
| Cc1noc(C)c1S(=O)(=O)Nc1cc(-c2ccccc2)sc1C(=O)O [Compound 94, 3-(3,5-DIMETHYL-ISOXAZOLE-4-SULFONYLAMINO)-5-PHENYL-THIOPHENE-2-CARBOXYLIC ACID] | 5 to 20 |
| CN(C(=O)c1ccccc1Cl)c1cc(-c2ccccc2)sc1C(=O)O [Compound 95, 3-[(2-CHLORO-BENZOYL)-METHYL-AMINO]-5-PHENYL-THIOPHENE-2-CARBOXYLIC ACID] | 5 to 20 |
| Cc1ccccc1C(=O)Nc1cc(-c2ccccc2)sc1C(=O)O [Compound 96, 3-(2-METHYL-BENZOYLAMINO)-5-PHENYL-THIOPHENE-2-CARBOXYLIC ACID] | 5 to 20 |
| Cc1ccccc1C(=O)N(C)c1cc(-c2ccccc2)sc1C(=O)O [Compound 97, 3-[METHYL-(2-METHYL-BENZOYL)-AMINO]-5-PHENYL-THIOPHENE-2-CARBOXYLIC ACID] | > 20 |
| O=C(O)c1sc(-c2ccccc2)cc1NS(=O)(=O)c1ccc(C(F)(F)F)cn1 [Compound 98, 5-PHENYL-3-(5-TRIFLUOROMETHYL-PYRIDINE-2-SULFONYLAMINO)-THIOPHENE-2-CARBOXYLIC ACID] | 5 to 20 |

| SMILES | IC50 [µM] |
| --- | --- |
| Cc1ccc(C)c(S(=O)(=O)Nc2cc(-c3ccc([N+](=O)[O-])cc3)sc2C(=O)O)c1 [Compound 100, 3-(2,5-DIMETHYL-BENZENESULFONYLAMINO)-5-(4-NITRO-PHENYL)-THIOPHENE-2-CARBOXYLIC ACID] | < 5 |
| Cc1ccccc1S(=O)(=O)Nc1cc(-c2ccccc2F)sc1C(=O)O [Compound 101, 5-(2-FLUORO-PHENYL)-3-(TOLUENE-2-SULFONYLAMINO)-THIOPHENE-2-CARBOXYLIC ACID] | < 5 |
| Cc1ccccc1S(=O)(=O)Nc1cc(-c2ccccc2C#N)sc1C(=O)O [Compound 102, 5-(2-CYANO-PHENYL)-3-(TOLUENE-2-SULFONYLAMINO)-THIOPHENE-2-CARBOXYLIC ACID] | 5 to 20 |
| CCOC(=O)c1ccccc1-c1cc(NS(=O)(=O)c2ccccc2C)c(C(=O)O)s1 [Compound 103, 5-(2-ETHOXYCARBONYL-PHENYL)-3-(TOLUENE-2-SULFONYLAMINO)-THIOPHENE-2-CARBOXYLIC ACID] | 5 to 20 |
| COc1ccccc1-c1cc(NS(=O)(=O)c2ccccc2C)c(C(=O)O)s1 [Compound 104, 5-(2-METHOXY-PHENYL)-3-(TOLUENE-2-SULFONYLAMINO)-THIOPHENE-2-CARBOXYLIC ACID] | 5 to 20 |
| Cc1ccccc1S(=O)(=O)Nc1cc(-c2sccc2C)sc1C(=O)O [Compound 105, 3′-METHYL-4-(TOLUENE-2-SULFONYLAMINO)-[2,2′]BITHIOPHENYL-5-CARBOXYLIC ACID] | 5 to 20 |
| Cc1ccccc1S(=O)(=O)Nc1cc(-c2ccccc2C(F)(F)F)sc1C(=O)O [Compound 106, 3-(TOLUENE-2-SULFONYLAMINO)-5-(2-TRIFLUOROMETHYL-PHENYL)-THIOPHENE-2-CARBOXYLIC ACID] | 5 to 20 |
| Cc1ccc(C)c(S(=O)(=O)Nc2cc(-c3ccc(F)cc3)sc2C(=O)O)c1 [Compound 107, 3-(2,5-DIMETHYL-BENZENESULFONYLAMINO)-5-(4-FLUORO-PHENYL)-THIOPHENE-2-CARBOXYLIC ACID] | < 5 |
| Cc1ccccc1S(=O)(=O)Nc1cc(/C=C/c2ccccc2)sc1C(=O)O [Compound 108, 5-STYRYL-3-(TOLUENE-2-SULFONYLAMINO)-THIOPHENE-2-CARBOXYLIC ACID] | < 5 |
| O=C(O)c1sc(-c2ccc([N+](=O)[O-])cc2)cc1NS(=O)(=O)c1ccc(F)cc1F [Compound 109, 3-(2,4-DIFLUORO-BENZENESULFONYLAMINO)-5-(4-NITRO-PHENYL)-THIOPHENE-2-CARBOXYLIC ACID] | < 5 |
| O=C(O)c1sc(-c2ccc(F)cc2)cc1NS(=O)(=O)c1ccc(F)cc1F [Compound 110, 3-(2,4-DIFLUORO-BENZENESULFONYLAMINO)-5-(4-FLUORO-PHENYL)-THIOPHENE-2-CARBOXYLIC ACID] | < 5 |
| O=C(O)c1sc(-c2ccccc2)cc1N(Cc1ccc(-c2ccc(F)c(Cl)c2)s1)C(=O)c1ccc(Cl)cc1Cl [Compound 111, 3-[[5-(3-CHLORO-4-FLUORO-PHENYL)-THIOPHEN-2-YLMETHYL]-(2,4-DICHLORO-BENZOYL)-AMINO]-5-PHENYL-THIOPHENE-2-CARBOXYLIC ACID] | < 5 |
| O=C(O)c1sc(-c2ccccc2)cc1NC(=O)N1CCC2(CC1)C(=O)NCN2c1ccccc1 [Compound 112, 3-[(4-OXO-1-PHENYL-1,3,8-TRIAZA-SPIRO[4,5]DECANE-8-CARBONYL)-AMINO]-5-PHENYL-THIOPHENE-2-CARBOXYLIC ACID] | < 5 |
| O=C(O)c1sc(-c2ccccc2)cc1NC(=O)N1CCC(n2c(=O)[nH]c3ccccc32)CC1 [Compound 113, 3-{[4-(2-OXO-2,3-DIHYDRO-BENZOIMIDAZOL-1-YL)-PIPERIDINE-1-CARBONYL]-AMINO]-5-PHENYL-THIOPHENE-2-CARBOXYLIC ACID] | > 20 |
| O=C(O)c1sc(-c2ccccc2)cc1NC(=O)N1CCN(c2ccc([N+](=O)[O-])cc2)CC1 [Compound 114, 3-{[4-(4-NITRO-PHENYL)-PIPERAZINE-1-CARBONYL]-AMINO}-5-PHENYL-THIOPHENE-2-CARBOXYLIC ACID] | < 5 |
| Cc1ccccc1S(=O)(=O)Nc1cc(-c2ccccc2C(=O)O)sc1C(=O)O [Compound 115, 5-(2-CARBOXY-PHENYL)-3-(TOLUENE-2-SULFONYLAMINO)-THIOPHENE-2-CARBOXYLIC ACID] | 5 to 20 |
| O=C(O)c1sc(-c2ccc(Cl)cc2)cc1NS(=O)(=O)c1ccccn1 [Compound 116, 5-(4-CHLORO-PHENYL)-3-(PYRIDINE-2-SULFONYLAMINO)-THIOPHENE-2-CARBOXYLIC ACID] | 5 to 20 |
| Cc1ccccc1S(=O)(=O)Nc1cc(-c2cccc(C#N)c2)sc1C(=O)O [Compound 117, 5-(3-CYANO-PHENYL)-3-(TOLUENE-2-SULFONYLAMINO)-THIOPHENE-2-CARBOXYLIC ACID] | < 5 |
| Cc1ccc(-c2cc(NS(=O)(=O)c3cc(C)ccc3C)c(C(=O)O)s2)cc1 [Compound 118, 3-(2,5-DIMETHYL-BENZENESULFONYLAMINO)-5-P-TOLYL-THIOPHENE-2-CARBOXYLIC ACID] | < 5 |
| Cc1ccc(-c2cc(NS(=O)(=O)c3ccc(F)cc3F)c(C(=O)O)s2)cc1 [Compound 119, 3-(2,4-DIFLUORO-BENZENESULFONYLAMINO)-5-P-TOLYL-THIOPHENE-2-CARBOXYLIC ACID] | < 5 |
| Cc1ccccc1S(=O)(=O)Nc1cc(CCc2ccccc2)sc1C(=O)O [Compound 120, 5-PHENETHYL-3-(TOLUENE-2-SULFONYLAMINO)-THIOPHENE-2-CARBOXYLIC ACID] | 5 to 20 |
